From patent US3968214A, “5-Methylthio-pyrimidine vasodilators” (Produits Chimiques Ugine Kuhlmann, priority 1973, dated 1976)
Where two headings read alike, the source gives them in different places.

Experiments:
[1] = test system: isolated duodenum of rabbit, spasms induced by barium chloride; assay: Spasmolytic activity, musculotrope versus BaCl2, isolated duodenum (Magnus)
From the text: (§1) The spasmolytic activities are known by means of the technique of R. Magnus (Arch. Ges. Physiol., 1904, 102, 123) on the isolated duodenum of rabbits. The spasmolytic neurotropes inhibit the contractions of the organ caused by acetylcholine, while the musculotropes prevent the spasms induced by barium chloride. The EC 50 expressed in mg/litre are collected in the following Table where EC denotes "Effective concentration".

[2] = test system: glycemia; assay: Hypoglycemiant activity, variation of glycemia after 4 days of daily oral treatment; assay type: in vivo, male CD rats (Charles RIVER); conditions: rat
Experimental: The hypoglycemiant properties have been studied on the male CD rats (Charles RIVER) weighing 200 to 250 g, in which the glycemia is controlled before treatment and then after 4 days of daily oral treatment. The seric glucose is determined by the method of W. S. Hoffmann (J. Biol. Chem., 1937, 120, 51). Groups of 10 rats are used and the hypoglycemiant activity is expressed by the percentage variation of the average glycemia of the treated animals with respect to that of the controls. If it is necessary, the statistical significance of the difference is determined by the test of the coefficient "t" of Student.

[3] = test system: serotonin (shaking of the head induced by 5-hydroxy-tryptophan); assay: Central antiserotonin activity: Head-twitch induced by 5-hydroxy-tryptophan; assay type: in vivo, mice; conditions: for ED50: Mus musculus, mice, oral, read-out: Antiserotonin activity Head-twitch AD 50; for central antiserotonin activity (in words): given orally to mice
From the text: The analgesic activities have been investigated with respect to abdominal spasms caused in mice by the intraperitoneal injection of 2-phenyl-1,4-benzoquinone according to E. Siegmund, E. Cadmus and G. Lu, Proc. Soc. exp. […] The central antiserotonin properties have been determined by the "Head-twitch" technique in mice according to S. J. Corne, R. W. Pickering and B. T. Warner, Brit. […] In this test, the antiserotonin products inhibit the sudden shaking of the head induced in mice by 5-hydroxy-tryptophan, the biological precursor of serotonin.

[4] = Acute toxicity in mice, intravenous and oral (LD50); assay type: in vivo; conditions: mouse, in vivo
From the text: (§2) The acute toxicities of the compounds according to the invention have been determined CD 1 mice (Charles RIVER) by intravenous and oral methods. The LD50 calculated by the quantal cumulative method of J. J. Reed and H. Muench (Amer. J. Hyg. 1938, 27, 493) are collected in the following Table: […]

[5] = test system: isolated duodenum of rabbit, contractions caused by acetylcholine; assay: Spasmolytic activity, neurotrope versus acetylcholine, isolated duodenum (Magnus)
From the text: as §1

[6] = test system: abdominal spasms caused in mice by 2-phenyl-1,4-benzoquinone; assay: Analgesic activity: abdominal spasms caused by intraperitoneal 2-phenyl-1,4-benzoquinone (P.B.Q.); assay type: in vivo; conditions: for ED50: Mus musculus, mice, oral, read-out: Analgesic activity P.B.Q. AD 50; for analgesic activity (in words): given orally to mice
From the text: The analgesic activities have been investigated with respect to abdominal spasms caused in mice by the intraperitoneal injection of 2-phenyl-1,4-benzoquinone according to E. Siegmund, E. Cadmus and G. Lu, Proc. Soc. exp. Biol. Med., 1957, 95, 729-731. The central antiserotonin properties have been determined by the "Head-twitch" technique in mice according to S. J. Corne, R. W. Pickering and B. T. Warner, Brit. J. Pharmacol., 1963, 20, 106-120. In this test, the antiserotonin products inhibit the sudden shaking of the head induced in mice by 5-hydroxy-tryptophan, the biological precursor of serotonin.

[7] = test system: isolated rabbit heart; assay: Coronaro-dilatatory activity, isolated heart (Langendorff modified by Anderson); conditions: for coronaro-dilatatory activity (in words): isolated rabbit heart
From the text: The technique of Langendorff, modified by F. E. Anderson, (J. Pharmacol. exp. Therap., 1948, 91, 135) using isolated rabbit heart permits the coronaro-dilatatory activity of the products to be studied. In this text, the cardiac perfusion liquid contains 0.5 UI/1 of posthypophysis. The results are expressed in the percentage variation of the coronary flow after affusion of the product to be tested, compared with the initial flow.

[8] = test system: mice; assay: Acute toxicity in mice, intravenous and oral (LD50); assay type: in vivo
From the text: as §2

[9] = oral, read-out: Acute toxicity to mice LD 50, orally
[10] = intravenous, read-out: Acute toxicity to mice LD 50, intravenous

Structure (SMILES)	Spasmolytic activity EC 50, musculotrope versus BaCl2 [1]	hypoglycemiant properties (in words) [2]	ED50 [3]	LD50 [4, 9]	Spasmolytic activity EC 50, neurotrope versus acetylcholine [5]	ED50 [6]	LD50 [4, 10]	other results
CCCN(CCC)c1nc(Cl)c(SC)c(NCCN(CC)CC)n1 [Example 5, 2-dipropylamino-4-(2'-diethylamino)-ethylamino-5-methylthio-6-chloro-pyrimidine]	0.90 mg/L	strong hypoglycemiant properties	100 mg/kg	800 mg/kg	1.00 mg/L	> 300 mg/kg		
COc1nc(N(C)c2ccccc2)nc(NCCN(C(C)C)C(C)C)c1SC [Example 24, 2-N-methyl-N,phenylamino-4-(2'-diisopropylamino)-ethylamino-5-methyl-thio-6-methoxy-pyrimidine]	0.13 mg/L	strong hypoglycemiant properties		600 mg/kg	0.12 mg/L		22 mg/kg	Increase of the coronary flow ([7]; dose 0.003 mg): 26%; Increase of the coronary flow ([7]; dose 0.01 mg): 32%; Increase of the coronary flow ([7]; dose 0.03 mg): 58%; Increase of the coronary flow ([7]; dose 0.10 mg): 67%; coronaro-dilatatory activity (in words) [7]: interesting coronaro-dilatatory activities; neurotropic spasmolytic activity (in words) [5]: necessary to call attention
COc1nc(N(C)c2ccccc2)nc(NCCN(C)C)c1SC [Example 26, 2-N-methyl-N-phenyl-amino-4-(2'-dimethylamino)-ethylamino-5-methylthio-6-methoxy-pyrimidine]				225 mg/kg		65 mg/kg	70 mg/kg	
CSc1c(Cl)nc(N(C)c2ccccc2)nc1NCCN(C(C)C)C(C)C [Example 12, 2-N-methyl-N-phenylamino-4-(2'-di-isopropyl-amino)-ethylamino-5-methylthio-6-chloro-pyrimidine]		strong hypoglycemiant properties		600 mg/kg		100 mg/kg		
CSc1c(Cl)nc(N(C)c2ccc(Cl)cc2)nc1NCCN(C(C)C)C(C)C [Example 18, 2-N-methyl-N(4-chloro-phenyl)amino-4-(2'-diisopropyl-amino)-ethylamino-5-methylthio-6-chloro-pyrimidine]		strong hypoglycemiant properties	205 mg/kg	> 900 mg/kg		> 300 mg/kg		
CCN(CC)CCNc1nc(N(C)c2ccccc2)nc(Cl)c1SC [Example 2, 2-N-methyl-N-phenylamino-4-(2'-diethylamino)-ethylamino-5-methylthio-6-chloro-pyrimidine]	0.80 mg/L		95 mg/kg	225 mg/kg	1.50 mg/L	> 100 mg/kg	43 mg/kg	Increase of the coronary flow ([7]; dose 0.01 mg): 56%; Increase of the coronary flow ([7]; dose 0.03 mg): 58%; Increase of the coronary flow ([7]; dose 0.10 mg): 64%; Increase of the coronary flow ([7]; dose 0.30 mg): 91%; coronaro-dilatatory activity (in words) [7]: interesting coronaro-dilatatory activities; central antiserotonin activity (in words) [3]: central antiserotonine
CSc1c(Cl)nc(N(C)c2cccc(C(F)(F)F)c2)nc1NCCN(C(C)C)C(C)C [Example 17, 2-N-methyl-N(3-trifluoromethyl-phenyl)-amino-4-(2'-diisopropylamino)-ethylamino-5-methylthio-6-chloro-pyrimidine]	0.50 mg/L	strong hypoglycemiant properties	400 mg/kg	> 900 mg/kg				
CSc1c(Cl)nc(N(C)c2ccccc2)nc1NCCN(C)C [Example 7, 2-N-methyl-N-phenyl-amino-4-(2'-dimethyl-amino)-ethylamino-5-methylthio-6-chloro-pyrimidine]	0.16 mg/L			200 mg/kg	1.20 mg/L	60 mg/kg	80 mg/kg	Increase of the coronary flow ([7]; dose 0.003 mg): 38%; Increase of the coronary flow ([7]; dose 0.01 mg): 40%; Increase of the coronary flow ([7]; dose 0.03 mg): 37%; Increase of the coronary flow ([7]; dose 0.10 mg): 77%; coronaro-dilatatory activity (in words) [7]: interesting coronaro-dilatatory activities; analgesic activity (in words) [6]: marked analgesic activity
CCN(CC)CCNc1nc(N(C)c2ccc(Cl)cc2)nc(Cl)c1SC [Example 6, 2-N-methyl-2-N-(4-chloro-phenyl)amino-4-(2'-diethylamino)-ethylamino-5-methylthio-6-chloro-pyrimidine]		strong hypoglycemiant properties	65 mg/kg	610 mg/kg				central antiserotonin activity (in words) [3]: central antiserotonine
CCN(CC)c1nc(Cl)c(SC)c(NCCN(C(C)C)C(C)C)n1 [Example 16, 2-diethylamino-4-(2'-diisopropylamino)-ethylamino-5-methylthio-6-chloro-pyrimidine]	0.30 mg/L		90 mg/kg	600 mg/kg		70 mg/kg		Increase of the coronary flow ([7]; dose 0.003 mg): 16%; Increase of the coronary flow ([7]; dose 0.01 mg): 52%; coronaro-dilatatory activity (in words) [7]: interesting coronaro-dilatatory activities; central antiserotonin activity (in words) [3]: central antiserotonine; analgesic activity (in words) [6]: marked analgesic activity
COc1nc(N(C)Cc2ccccc2)nc(NCCN(C(C)C)C(C)C)c1SC [Example 27, 2-N-methyl-N-benzyl-amino-4-(2'-diiso-propyl-amino)-ethylamino-5-methyl-thio-6-methoxy-pyrimidine]	0.08 mg/L			600 mg/kg		95 mg/kg	18.5 mg/kg	musculotropic EC 50 [1]: less than 0.1 mg/liter; musculotropic spasmolytic activity (in words) [1]: quite remarkable activities; analgesic activity (in words) [6]: marked analgesic activity
CCN(CC)CCNc1nc(N(CC)CC)nc(Cl)c1SC [Example 3, 2-diethylamino-4-(2'-diethylamino)-ethyl-amino-5-methylthio-6-chloro-pyrimidine]	0.30 mg/L		35 mg/kg	225 mg/kg	1.30 mg/L	> 100 mg/kg	64 mg/kg	central antiserotonin activity (in words) [3]: central antiserotonine
CSc1c(NCCN(C(C)C)C(C)C)nc(N(C)c2ccccc2)nc1OCCCN(C)C [Example 30, 2-N-methyl-N-phenyl-amino-4-(2'-di-isopropyl-amino)-ethylamino-5-methyl-thio-6-(dimethylaminoethyl)-methoxy-pyrimidine]	1.00 mg/L	strong hypoglycemiant properties						Acute toxicity to mice LD 50, intravenous ([8]; intravenous): 9.5 mg/kg; Acute toxicity to mice LD 50, orally ([8]; oral): 200 mg/kg
CSc1c(Cl)nc(N2CCCCC2)nc1NCCN(C(C)C)C(C)C [Example 13, 2-piperidino-4-(2'-diisopropylamino)-ethylamino-5-methylthio-6-chloro-pyrimidine]		strong hypoglycemiant properties	185 mg/kg	> 900 mg/kg				
